# Measured values taken from patent US20160106439A1, “PNEUMATIC TOURNIQUET” (BIONUMERIK PHARMACEUTICALS, INC., priority 2013, published 2016).
# Positions count from the first letter of the chain named. Values joined by “and” are separate entries in the source; they are usually repeats but may differ in a detail not shown here. Equal values may be shown once. Read-outs that look alike come from different tables or passages of the source.
# Tests used:
# T790M EGFR kinase = T790M EGFR kinase (Homo sapiens, UniProt P00533, T790M); assay: T790M EGFR kinase assay (ADP-glo); type: biochemical
# T790M EGFR kinase, sequence (P00533 25-1210 T790M): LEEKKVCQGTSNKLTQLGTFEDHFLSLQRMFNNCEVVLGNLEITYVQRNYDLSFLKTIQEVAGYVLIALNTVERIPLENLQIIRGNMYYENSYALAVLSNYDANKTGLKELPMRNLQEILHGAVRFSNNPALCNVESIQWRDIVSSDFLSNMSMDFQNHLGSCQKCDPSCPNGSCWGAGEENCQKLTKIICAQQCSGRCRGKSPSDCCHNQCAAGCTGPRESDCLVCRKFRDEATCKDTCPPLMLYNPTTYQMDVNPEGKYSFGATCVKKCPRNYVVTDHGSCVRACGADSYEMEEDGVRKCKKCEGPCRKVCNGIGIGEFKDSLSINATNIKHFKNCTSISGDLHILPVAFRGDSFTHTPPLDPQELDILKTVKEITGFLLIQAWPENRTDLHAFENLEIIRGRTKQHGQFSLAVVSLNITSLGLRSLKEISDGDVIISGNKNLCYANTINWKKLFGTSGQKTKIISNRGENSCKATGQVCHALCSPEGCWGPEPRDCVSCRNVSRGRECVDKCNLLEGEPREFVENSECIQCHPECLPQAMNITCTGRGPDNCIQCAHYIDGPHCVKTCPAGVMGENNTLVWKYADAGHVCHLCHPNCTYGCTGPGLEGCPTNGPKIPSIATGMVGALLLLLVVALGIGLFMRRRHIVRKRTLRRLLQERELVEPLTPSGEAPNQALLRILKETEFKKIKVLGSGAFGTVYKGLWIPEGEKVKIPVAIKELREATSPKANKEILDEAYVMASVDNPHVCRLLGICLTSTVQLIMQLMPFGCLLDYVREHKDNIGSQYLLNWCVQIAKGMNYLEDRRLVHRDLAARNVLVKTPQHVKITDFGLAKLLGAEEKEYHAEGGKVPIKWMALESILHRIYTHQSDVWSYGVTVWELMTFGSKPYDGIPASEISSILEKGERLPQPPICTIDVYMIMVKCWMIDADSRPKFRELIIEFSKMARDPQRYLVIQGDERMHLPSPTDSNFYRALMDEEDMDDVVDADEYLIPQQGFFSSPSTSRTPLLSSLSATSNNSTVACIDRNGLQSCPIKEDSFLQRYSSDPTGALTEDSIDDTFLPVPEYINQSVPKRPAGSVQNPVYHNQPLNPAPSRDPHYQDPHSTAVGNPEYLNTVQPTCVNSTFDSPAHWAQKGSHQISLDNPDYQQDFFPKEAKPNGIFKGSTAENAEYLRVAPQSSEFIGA
# [1] = biological target: T1, E13K, D16K, E95K, E103K Thioredoxin (Homo sapiens, UniProt P10599, D16K/E103K/E13K/E95K); assay: X-ray crystallography of Tavocept-derived mesna adduct on Trx; type: binding; details: 40 mM Tavocept
# T1 construct: made in house; host or cells: E. coli BL21(DE3), pET-15b system
# T1 sequence (P10599 1-105 E13K/D16K/E95K/E103K): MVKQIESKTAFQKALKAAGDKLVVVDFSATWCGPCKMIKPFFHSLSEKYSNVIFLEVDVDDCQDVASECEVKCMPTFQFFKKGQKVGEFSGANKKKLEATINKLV
# Protocol: Adduct was prepared as described above with some modifications designed to increase the likelihood of success in crystallization of the protein. […] This reaction was incubated for 1 hour at 30° C. followed by overnight incubation at 4° C. […] Aliquots of this solution were analyzed by ESI LC-MS to confirm the presence of adduct(s) prior to initiation of crystallization experiments.
# These initial broad screens produced crystals under a wide range of conditions (data not shown) and the screens used included: (i) PEGION, CRYSTALS HT, and PEGRX (Hampton Research) and (ii) JCSG and BASIC (JENA Biosciences). Multiple rounds of optimization were completed and included fine screens, varying the protein concentration and varying the protein to reservoir ratios to obtain diffraction quality crystals. In the Trx pH 9.0/8.5 structure (adduct formed at pH 9.0, crystals grown at pH 8.5), the best crystals were obtained in 20% ethanol, 0.1 M Tris (at 60 mg/mL Trx protein) and diffracted to 2.5 Å (C2 space group). In Trx pH 9.0/7.0 (adduct formed at pH 9.0, crystals grown at pH 7.0), the best crystals were obtained in 20% PEG3350, 0.2 M KCl (60 mg/mL Trx protein) and diffracted to 2.8 Å (C2 space group). In Trx pH 7.0/7.0 (adduct formed at pH 7.0, crystals grown at pH 7.0), the best crystals were obtained in 28% PEG3350, 0.2M KCl (160 mg/mL Trx protein) and diffracted to 1.85 Å resolution (P21 space group).
# The solution obtained was consistent with four molecules in the crystal asymmetric unit. […] Molecules C and D were substantially rebuilt and the Tavocept-derived mesna adduct added after protein rebuilding was complete. The structure solution was supported by contiguous electron density for the entire chain trace of each molecule, landmark side chain density features matching the amino acid sequence including cysteines, absence of phi-psi violations, and final R/Rfree values in the normal range. […] For the Trx pH 9.0/8.5 structure, residual density observed near Cys69 of molecule A was modeled as a Tavocept-derived mesna adduct in a dual conformation. […]
# [2] = biological target: T2, recombinant human farnesyltransferase (Homo sapiens, UniProt P49354+P49356); assay: Farnesyltransferase Dansyl-GCVLS fluorescence assay; type: biochemical; details: 25 nM FTase, 3 μM Dansyl-GCVLS, 25° C.
# T2 construct: purchased Abcam
# T2 sequence (P49356 whole entry, one chain of several): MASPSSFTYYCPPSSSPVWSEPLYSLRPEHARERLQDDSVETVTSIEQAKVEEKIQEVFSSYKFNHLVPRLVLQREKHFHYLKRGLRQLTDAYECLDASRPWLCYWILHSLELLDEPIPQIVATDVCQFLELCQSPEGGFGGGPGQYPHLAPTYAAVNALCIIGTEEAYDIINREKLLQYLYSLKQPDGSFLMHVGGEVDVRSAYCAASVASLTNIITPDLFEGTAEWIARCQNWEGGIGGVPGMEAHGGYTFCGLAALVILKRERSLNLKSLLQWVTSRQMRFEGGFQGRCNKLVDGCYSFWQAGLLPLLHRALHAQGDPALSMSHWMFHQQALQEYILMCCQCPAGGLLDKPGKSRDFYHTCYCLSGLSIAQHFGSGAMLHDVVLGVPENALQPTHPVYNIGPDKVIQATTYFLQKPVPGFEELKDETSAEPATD
# Protocol: Tavocept-inhibited human farnesyltransferase-mediated transfer of farnesylpyrophosphate to the cysteine residue in a danyslated peptide substrate of sequence glycine-cysteine-valine-leucine-serine (designated-Dansyl-GCVLS) in vitro. See, FIG. 79. The assay reactions contained 25 nM recombinant human farnesyltransferase (Abcam), 10 μM farnesylpyrophosphate (SigmaAldrich), 3 μM Dansyl-GCVLS (NeoBioScience) in Tris buffer (50 mM, pH 7.5) containing 5 mM MgCl2, 10 μM ZnCl2, and 0.2% octyl-β-D-glucopyranoside. Total assay volumes were 50 μL and the reactions were initiated by the addition of FTase (5 μL of 250 nM stock was added to 45 μL of assay components listed above). The excitation wavelength was 340 nm (a 340 nm filter with 25 nm bandpass) and the emission wavelength was […] (505 nm filter with 20 nm bandpass) and the assay temperature was 25° C. Progress curves of the transfer of the farnesylpyrophosphate to the Dansyl-GCVLS substrate are shown in FIG. 79, Panel A and relative rates of the progress curve were determined and are shown in FIG. 79, Panel B.
# [3] = biological target: T3, Anaplastic Lymphoma Kinase (ALK) (Homo sapiens, UniProt Q9UM73); assay: ALK kinase activity (summary Table 27); type: biochemical
# T3 construct: illustrates the kinase domain of ALK (residues 1058-1623) which was used in these experiments; purchased Millipore; host or cells: Sf21 insect cells (baculovirus)
# T3 sequence (Q9UM73 1058-1620 limits assumed): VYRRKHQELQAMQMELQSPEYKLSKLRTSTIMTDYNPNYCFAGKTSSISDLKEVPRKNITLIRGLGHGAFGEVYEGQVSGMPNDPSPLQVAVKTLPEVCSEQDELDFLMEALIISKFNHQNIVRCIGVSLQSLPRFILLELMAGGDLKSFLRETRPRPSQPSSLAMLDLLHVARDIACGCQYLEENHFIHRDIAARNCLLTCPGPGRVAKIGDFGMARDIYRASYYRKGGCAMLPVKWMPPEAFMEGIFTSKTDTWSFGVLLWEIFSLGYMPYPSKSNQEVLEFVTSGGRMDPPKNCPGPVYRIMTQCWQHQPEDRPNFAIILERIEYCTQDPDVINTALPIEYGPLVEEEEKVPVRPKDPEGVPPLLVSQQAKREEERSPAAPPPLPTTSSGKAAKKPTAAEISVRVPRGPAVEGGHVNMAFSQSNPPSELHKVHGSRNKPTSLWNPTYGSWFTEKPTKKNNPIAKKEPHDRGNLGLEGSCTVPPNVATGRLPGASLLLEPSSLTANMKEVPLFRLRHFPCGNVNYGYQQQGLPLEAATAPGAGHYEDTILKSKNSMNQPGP
# [4] = cited from earlier work
# Recombinant human Trx = biological target: T4, Recombinant human Trx (Homo sapiens, UniProt P10599); assay: LC MS of Trypsin digested Trx after incubation with Tavocept, mesna or glutathione; type: binding; design: purchased Sigma (SigmaAldrich); host or cells: E. coli; details: 10 mM, 4 to 6 hours
# T4 sequence (P10599 1-105): T1 sequence (P10599 1-105 E13K/D16K/E95K/E103K) with K13E, K16D, K95E, K103E
# [5] = biological target: human peroxiredoxin 4 (PRX4) (Homo sapiens, UniProt Q13162); assay: Tavocept-derived mesna adducts on Prx 4 (MS, X-ray crystallography)
# human peroxiredoxin 4 (PRX4), sequence (Q13162 79-271 limits assumed): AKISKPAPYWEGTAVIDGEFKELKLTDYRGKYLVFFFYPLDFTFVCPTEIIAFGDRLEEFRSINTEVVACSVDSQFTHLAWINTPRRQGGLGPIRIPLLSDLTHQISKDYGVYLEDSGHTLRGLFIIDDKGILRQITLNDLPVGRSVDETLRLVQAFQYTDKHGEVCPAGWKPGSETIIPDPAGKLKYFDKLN
smiles,measurement,setting,value
"O=S(=O)([O-])CCSSCCS(=O)(=O)[O-].[Na+].[Na+] [Tavocept, disodium 2,2′-dithio-bis-ethane sulfonate]",potentiation of Erlotinib inhibition of T790M EGFR kinase,T790M EGFR kinase; 10 μM ATP,strongly potentiated
same,IC50,"T790M EGFR kinase; 10 μM ATP, read-out: IC50 on T790M EGFR kinase activity",> 40 mM
same,inhibition of T790M EGFR kinase,"T790M EGFR kinase; 10 μM or 100 μM ATP, physiological concentrations (<20 mM)",did not notably inhibit
same,IC50,"T790M EGFR kinase; 100 μM ATP, read-out: IC50 on T790M EGFR kinase activity",> 40 mM
same,IC50,T790M EGFR kinase; read-out: IC50 on T790M EGFR kinase,> 40 mM
same,Tavocept-derived mesna adduct sites on Trx,[1]; Trx pH 7.0/7.0 structure,clearly visible on Cys69 in both molecules A and B
same,Tavocept-derived mesna adduct sites on Trx,[1]; Trx pH 9.0/7.0 structure,clearly visible on both Cys69 and Cys62 in both molecules A and B
same,Tavocept-derived mesna adduct sites on Trx,[1]; Trx pH 9.0/8.5 structure,clearly visible on Cys69 in both molecules A and B
same,Inhibition of farnesylation,[2],inhibits farnesylation in a concentration-dependent manner
same,Effect on ALK kinase activity,[3],resulting in inhibition of ALK kinase
same,Tavocept in plasma,[4]; 41 g/m^2 Tavocept,~14 mM
same,concentrations achieved in the clinic,[4]; as high as,≤ 18000 µM
same,plasma levels pharmacologically achievable,[4]; doses of 18.4 g/m^2 and higher,≥ 8 mM
same,pharmacologically achievable concentrations,[4]; in vivo,6-10 mM
same,plasma concentrations achieved in clinical trials,[4]; in vivo,10000 µM
same,Cmax,"[4]; read-out: Cmax values in plasma, typical, doses as high as 41 g/m^2",10000 µM
same,Cmax,"[4]; read-out: Cmax values in plasma, dose of 18.4 g/m^2",≥ 10000 µM and 10000 µM
same,Cmax,"[4]; read-out: typical Cmax values, administered at 18 g/m^2",10000 µM
same,Mesna-Cysteine Adduct Detected?,Recombinant human Trx; fragment CMPTFQFFK (cys73),Yes
same,Mesna-Cysteine Adduct Detected?,Recombinant human Trx; fragment LVVVDFSATWCGPCK (active site cys32 and cys35),No
same,Mesna-Cysteine Adduct Detected?,Recombinant human Trx; fragment YSNVIFLEVDVDDCQDVASECEVK (cys62 and cys69),Yes
same,number of Tavocept-derived mesna moieties on Prx 4,[5]; Mass Spectroscopy after reaction with Tavocept,2
same,Prx 4 cysteine bound by Tavocept-derived mesna moiety,"[5]; X-ray, 2.3 Å, 40 mM Tavocept",Cys124
